# What was measured:
# Assay in all cases: MIC in agar plate culture-dilution assay
# Assay type in all cases: cell-based
# [1] = tested on: Bacillus subtilis ATCC 6633; details: ATCC6633; Bacillus subtilis ATCC 6633; agar plate culture-dilution; read-out: MIC
# Source text: (§1) The compounds of the formula (I) and salts thereof of the present invention are new, and have high and broad antibacterial activity capable of inhibiting the growth of pathogenic microorganisms of a broad range including gram-positive and gram-negative bacteria. In order to show the usability of the compounds of the formula (I), the antibacterial activity of some typical compounds of the formula (I) was actually measured, and the results are given in the following Table-1.
# (§2) MIC in agar plate culture-dilution assay (Y/ml)
# [2] = tested on: Citrobacter freundii GN-346; details: GN346; Citrobacter freundii GN-346; agar plate culture-dilution; read-out: MIC
# Source text: as §1, §2
# [3] = tested on: Enterobacter cloacae GN-7471; details: GN7471; Enterobacter cloacae GN-7471; agar plate culture-dilution; read-out: MIC
# Source text: as §1, §2
# [4] = tested on: Escherichia coli NIHJ JC-2; details: NIHJJC2
# Source text: as §1, §2
# [5] = tested on: Klebsiella pneumoniae GN-69; details: GN69; Klebsiella pneumoniae GN-69; agar plate culture-dilution; read-out: MIC
# Source text: as §1, §2
# Proteus rettgeri GN-624 = details: Providencia rettgeri, GN624; Proteus rettgeri GN-624; agar plate culture-dilution; read-out: MIC
# Source text: as §1, §2
# Proteus vulgaris GN-76 = details: GN76; Proteus vulgaris GN-76; agar plate culture-dilution; read-out: MIC
# Source text: as §1, §2
# [6] = tested on: Pseudomonas aeruginosa E-2; details: E2; Pseudomonas aeruginosa E-2; agar plate culture-dilution; read-out: MIC
# Source text: as §1, §2
# [7] = tested on: Pseudomonas aeruginosa IAM-1007; details: IAM1007; Pseudomonas aeruginosa IAM-1007; agar plate culture-dilution; read-out: MIC
# Source text: as §1, §2
# [8] = tested on: Pseudomonas aeruginosa M-0148; details: M0148; Pseudomonas aeruginosa M-0148; agar plate culture-dilution; read-out: MIC
# Source text: as §1, §2
# [9] = tested on: Pseudomonas maltophilia M-0627; details: Stenotrophomonas maltophilia, M0627; Pseudomonas maltophilia M-0627; agar plate culture-dilution; read-out: MIC
# Source text: as §1, §2
# [10] = tested on: Serratia marcescens No. 1; details: Serratia marcescens No. 1; agar plate culture-dilution; read-out: MIC
# Source text: as §1, §2
# [11] = tested on: Staphylococcus aureus 209P JC-1; details: Staphylococcus aureus 209P JC-1; agar plate culture-dilution; read-out: MIC
# Source text: as §1, §2
# [12] = tested on: Staphylococcus aureus Smith (1); details: Staphylococcus aureus Smith (1); agar plate culture-dilution; read-out: MIC
# Source text: as §1, §2
MIC [1] [µg/mL],MIC [2] [µg/mL],MIC [3] [µg/mL],MIC [4] [µg/mL],MIC [5] [µg/mL],MIC (Proteus rettgeri GN-624) [µg/mL],MIC (Proteus vulgaris GN-76) [µg/mL],MIC [6] [µg/mL],MIC [7] [µg/mL],MIC [8] [µg/mL],MIC [9] [µg/mL],MIC [10] [µg/mL],MIC [11] [µg/mL],MIC [12] [µg/mL],SMILES
3.13,0.78,6.25,0.05,0.05,3.13,0.1,0.05,0.1,0.2,1.56,0.2,3.13,6.25,"Nc1nc(C(NC(=O)c2cc(=O)c(O)cn2O)C(=O)N[C@@H]2C(=O)N3C(C(=O)O)=C(CSc4cnns4)CS[C@H]23)cs1 (stereo partly drawn) [Example 25, (6R,7R)7-[(RS)2-(2-Aminothiazol-4-yl)-2-(1,5-dihydroxy-4-pyridone-2-carboxamido)acetamido]-3-(1,2,3-thiadiazol-5-yl)thiomethyl-ceph-3-em-4-carboxylic acid]"
6.25,0.1,0.78,0.05,< 0.025,0.1,0.1,< 0.025,< 0.025,0.2,6.25,0.1,1.56,1.56,"C[n+]1ccc(SCC2=C(C(=O)[O-])N3C(=O)[C@@H](NC(=O)C(NC(=O)c4cc(=O)c(O)cn4O)c4csc(N)n4)[C@H]3SC2)c2c1CCC2 (stereo partly drawn) [Example 14, (6R,7R)7-[(RS)2-(2-Aminothiazol-4yl)-2-(1,5-dihydroxy-4-pyridone-2-carboxamido)acetamido]-3-(2,3-cyclopenteno-1-methylpyridinium-4-yl)-thiomethyl-ceph-3-em-4-carboxylate]"

# Reference: patent US4758557A, “Cephalosporin derivatives and bactericides containing the same” (Meiji Seika Kaisha, Ltd., priority 1985, dated 1988)
